Tests used:
[1] = tested on: mammary, stomach and colon cancer; settings: CLA-containing diet, compared with the reference group; cited from earlier work
cancer cells = settings: tissue cultures of human cells; cited from earlier work
[2] = tested on: high density lipoprotein (HDL); settings: rabbit, in vivo; cited from earlier work
fatty tissues = settings: mouse, in vivo; cited from earlier work
[3] = tested on: Propionibacterium freudenreichii ssp. shermanii JS (PJS); test: Growth of PJS strain in MRS medium containing linoleic acid (turbidity, Klett meter); type: cell-based; settings: for Growth (cell density of the culture as turbidity, Klett meter): 600 μg/ml linoleic acid, 30° C.
Method: (§1) As controls were used the same medium without addition (positive growth control) and a medium to which only detergent was added. For the test, the propionic acid bacterium strains Propionibacterium freudenreichii ssp. shermanii JS (PJS), DSM 7067, and P. freudenreichii ssp. freudenreichii 131 ([…]) were first cultivated in MRS broths with • 1) no addition • 2) 600 μg/ml linoleic acid • 3) addition of 600 μg/ml linoleic acid from a stock solution containing 5 mg/ml linoleic acid and 1% of Tween 80 preparation in an aqueous solution (final content of Tween […]) • 4) addition of 0.9% of Kotilen and 600 μg/ml linoleic acid micellized according to Example 1 • 5) addition of 0.9% of Kotilen only (not linoleic acid) Each bacterium strain was cultivated in the culture medium twice at 30° C. for 72 h, whereafter each test broth was inoculated with 1% of fresh culture. The test cultures were monitored at 30° C. for 4 days by determining the cell density of the culture as turbidity with a Klett meter. At the end of cultivation (96 h), the amount of formed CLA was determined by gas chromatography, the c9,t11 isomer separately and the other isomers together.

[4] = tested on: P. freudenreichii ssp. freudenreichii 131 (P131); test: Growth of P131 strain in MRS medium containing linoleic acid (turbidity, Klett meter); type: cell-based, Propionibacterium freudenreichii ssp. freudenreichii; settings: for Growth (cell density of the culture as turbidity, Klett meter): 600 μg/ml linoleic acid, 30° C.
Method: as §1

PJS cells = test: Viable cell concentration in pH-adjusted fermentor culturing of PJS cells with micellized linoleic acid; type: cell-based, Propionibacterium freudenreichii ssp. shermanii
Method: The most efficient way to cultivate propionic acid bacteria on an industrial scale is to do it in a fermentor where the pH of the medium can be maintained optimal for cellular growth. A production process of conjugated linoleic acid by means of growing PJS cells was examined in fermentor cultures the solution volume being 2 liters. The whey permeate broth of Example 2 was used as growth medium. The growth broth contained micellized linoleic acid 400, 600, 1000 or 1400 μg/ml and Kotilen detergent 0.6, 0.9 or 1.5%, respectively. During the cultivation, the pH of the growth medium was maintained at 6.3 with linoleic acid concentrations of 400, 600 and 1000 μg/ml and at 6.5 with linoleic acid concentration of 1400 μg/ml by means of an automatic addition of ammonium solution. The cultivation temperature was 30° C. and the mixing rate was 100 rpm. The concentration of viable propionic acid bacteria cells was determined in buffered sodium lactate agar and the agar dishes were incubated at 30° C. anaerobically for 5 to 7 days. Table 3 compares the CLA production process in a fermentor, with the linoleic acid content in the medium of 400, 600 and 1000 μg/ml, after 94 hour cultivation, and that of 1400 μg/ml, after 108 and 132 hour cultivation.

breast cancer = settings: cited from earlier work
propionic acid bacteria = settings: even in relatively low concentrations; cited from earlier work

## conjugated linoleic acid [CLA]
[1]
  number of mammary, stomach and colon cancer incidences: reduced
Cancer cells
  development of cancer cells: capable of inhibiting development of cancer cells
[2]
  amount of the good high density lipoprotein (HDL): does not reduce
Fatty tissues
  effect on fatty tissues: split fatty tissues

## CCCCC/C=C\C/C=C\CCCCCCCC(=O)O [LA, cis-9,trans-12 octadecadienoic acid]
[3]; 600 μg/ml
  Effect on growth as compared with the control (in words): inhibited the growth
[3]; 0 h
  Growth (cell density of the culture as turbidity, Klett meter): 78
[3]; 24 h
  Growth (cell density of the culture as turbidity, Klett meter): 84
[3]; 48 h
  Growth (cell density of the culture as turbidity, Klett meter): 96
[3]; 72 h
  Growth (cell density of the culture as turbidity, Klett meter): 106
[3]; 96 h
  Growth (cell density of the culture as turbidity, Klett meter): 110
[4]; 600 μg/ml
  Effect on growth as compared with the control (in words): inhibited the growth
[4]; 0 h
  Growth (cell density of the culture as turbidity, Klett meter): 80
[4]; 24 h
  Growth (cell density of the culture as turbidity, Klett meter): 90
[4]; 48 h
  Growth (cell density of the culture as turbidity, Klett meter): 97
[4]; 72 h
  Growth (cell density of the culture as turbidity, Klett meter): 107
[4]; 96 h
  Growth (cell density of the culture as turbidity, Klett meter): 115
PJS cells; micellized LA 400 μg/ml, deterg. (Kotilen) 0.6%, 94 h, pH 6.3, 30° C.
  cell concentration (cfu/ml): 1.3 × 10^10 cfu/ml
PJS cells; micellized LA 600 μg/ml, deterg. (Kotilen) 0.9%, 94 h, pH 6.3, 30° C.
  cell concentration (cfu/ml): 1.2 × 10^10 cfu/ml
PJS cells; micellized LA 1000 μg/ml, deterg. (Kotilen) 1.5%, 94 h, pH 6.3, 30° C.
  cell concentration (cfu/ml): 1.4 × 10^10 cfu/ml
PJS cells; micellized LA 1400 μg/ml, deterg. (Kotilen) 1.5%, 108 h, pH 6.5, 30° C.
  cell concentration (cfu/ml): 2.4 × 10^9 cfu/ml
PJS cells; micellized LA 1400 μg/ml, deterg. (Kotilen) 1.5%, 132 h, pH 6.5, 30° C.
  cell concentration (cfu/ml): 1.3 × 10^10 cfu/ml
Breast cancer
  effect on breast cancer: stimulating effect
Propionic acid bacteria
  effect on the growth of propionic acid bacteria: inhibitory effect
